Test results as given in PubChem BioAssay AID743490 (The Scripps Research Institute Molecular Screening Center, 2014).
Calls of active or inactive are those of the source. No rule for the calls is given here.

Molecular target: Trace amine-associated receptor 1 (Homo sapiens) (UniProt Q96RJ0)
Assay: loss of TAAR1 response after agonism – cell-based, fluorescence, human, MedChem round 1, counter-screen for TAAR1 agonist project, SAR follow-up (AID 743490)
Conditions: hTAAR1 cells, desensitization of agonist response

Chain of Trace amine-associated receptor 1 (Homo sapiens) (Q96RJ0 whole entry, looked up): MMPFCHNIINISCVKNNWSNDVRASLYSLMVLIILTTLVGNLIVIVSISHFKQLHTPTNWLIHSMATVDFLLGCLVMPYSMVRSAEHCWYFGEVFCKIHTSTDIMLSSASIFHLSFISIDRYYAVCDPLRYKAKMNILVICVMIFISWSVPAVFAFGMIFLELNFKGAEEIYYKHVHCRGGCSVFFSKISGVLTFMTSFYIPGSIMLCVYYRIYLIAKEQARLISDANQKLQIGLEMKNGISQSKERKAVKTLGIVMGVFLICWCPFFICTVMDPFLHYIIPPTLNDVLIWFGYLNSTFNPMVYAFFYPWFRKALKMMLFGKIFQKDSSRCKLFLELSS

Structure (SMILES) | IC50
O=C(CCN1CCC(O)(c2ccccc2)C1)c1ccc2c(c1)OCCO2 (stereo unspecified) | > 29.9 µM (inactive)
O=C(CCN1C[C@@H](C(=O)O)[C@H](c2cccc(F)c2)C1)NC1CC1 | > 29.9 µM (inactive)
O=C(CCN1CCC(O)(c2ccc(F)cc2)C1)c1ccc2c(c1)OCCO2 (stereo unspecified) | > 29.9 µM (inactive)
CC(CN1CCC(c2ccccc2)C1)C(=O)c1ccc2c(c1)OCCO2 (stereo unspecified) | > 29.9 µM (inactive)
O=C(CCN1C[C@@H](C(=O)O)[C@H](c2ccccc2)C1)NCc1cccs1 | > 29.9 µM (inactive)
CC(CN1CCCC1Cc1ccccc1)C(=O)c1ccc2c(c1)OCCO2 (stereo unspecified) | > 29.9 µM (inactive)
NC(=O)CCN1C[C@H](c2ccccc2)[C@@H]2[C@H]1C1CCN2CC1 | > 29.9 µM (inactive)
CC1CN(CCC(=O)c2ccc3c(c2)OCCO3)CC1c1ccccc1 (stereo unspecified) | 4.4 µM
Cc1ccc(C(=O)CCN2CCC(c3ccccc3)C2)cc1 (stereo unspecified) | > 29.9 µM (inactive)
O=C(CCN1C[C@@H](C(=O)O)[C@H](c2ccccc2)C1)NC1CCCC1 | > 29.9 µM (inactive)
O=C(CCN1CCC(c2ccccc2)C1)c1ccccc1 (stereo unspecified) | inactive
